From ChEMBL document CHEMBL1126718, “Potent in vitro and in vivo inhibitors of platelet aggregation based upon the Arg-Gly-Asp-Phe sequence of fibrinogen. A proposal on the nature of the binding interaction between the Arg-guanidine of RGDX mimetics and the platelet GP IIb-IIIa receptor” (J Med Chem, 1993) come the findings set out here.

The species entered for assay [1] is Canis familiaris. Kind of assay: In vitro inhibition of ADP-induced platelet aggregation in canine platelet rich plasma (PRP). To be noted: Canis lupus familiaris. Type of assay: functional.
A short description of assay [2]: In vitro inhibition of ADP-induced platelet aggregation in human platelet rich plasma (PRP). It counts as functional.
Assay [3] is filed under the species Canis familiaris. Nature of the assay: In vitro inhibition of ADP-induced platelet aggregation in canine platelet rich plasma (PRP); Inactive. It counts as functional, Canis lupus familiaris.
Assay [4] is described as follows: In vitro inhibition of ADP-induced platelet aggregation in platelet rich plasma (PRP). Type of assay: functional.

SMILES strings stand for the structures. Peptide text beside a SMILES is read from it.

`N=C(N)c1ccc(CC(=O)CCC(=O)N[C@@H](CC(=O)O)C(=O)N[C@@H](Cc2ccccc2)C(=O)O)cc1`: half-maximal inhibition in the assay filed under Canis familiaris [1] (IC50) was put at 180 nM. `N=C(N)c1ccc(CCCCC(=O)N[C@@H](CC(=O)O)C(=O)N[C@@H](Cc2ccccc2)C(=O)O)cc1`: the IC50 (commonly the concentration that gives 50% inhibition) in assay [2] stood at 42 nM; in the assay filed under Canis familiaris [1], 53 nM. Consider `N=C(N)c1ccc(CCCC(=O)N[C@@H](CC(=O)O)C(=O)N[C@@H](Cc2ccccc2)C(=O)O)cc1`, for which the IC50 result in the assay listed under Canis familiaris [3] is on record as “Not Active”. With `N=C(N)c1ccc(/C=C/CCC(=O)N[C@@H](CC(=O)O)C(=O)N[C@@H](Cc2ccccc2)C(=O)O)cc1`, the figures for the 50% inhibitory concentration (IC50) (in assay [2]; in the assay filed under Canis familiaris [1]) were 90 nM and 82 nM, respectively. With `N=C(N)c1ccc(C#CCCC(=O)N[C@@H](CC(=O)O)C(=O)N[C@@H](Cc2ccccc2)C(=O)O)cc1`, the values for the IC50 (in assay [2]; in the assay listed under Canis familiaris [1]) were 120 nM and 90 nM, respectively. The corresponding values for `N=C(N)c1cccc(/C=C/CCCC(=O)N[C@@H](CC(=O)O)C(=O)N[C@@H](Cc2ccccc2)C(=O)O)c1` are 3200 nM and 4300 nM.

In the assay filed under Canis familiaris [1], `N=C(N)c1cccc(CCCCCC(=O)N[C@@H](CC(=O)O)C(=O)N[C@@H](Cc2ccccc2)C(=O)O)c1` had an IC50 of 5800 nM. `N=C(N)NCCC[C@H](N)C(=O)NCC(=O)N[C@@H](CC(=O)O)C(=O)N[C@@H](Cc1ccccc1)C(=O)O` (H-RGDF-OH) registered an IC50 in assay [4] of 90 µM.
